System: rainbow trout hepatocytes
Test: In vitro hepatocyte clearance assay (substrate depletion), trout
Format: in vitro ADME, Oncorhynchus mykiss
Settings: 15 °C, 4 h, 2 µM MXC / 0.5 µM BaP, mean over in vitro runs
Protocol: Isolation of hepatocytes from liver of rainbow trout was performed by a two-step collagenase perfusion procedure which is well established for rainbow trout ([Nabb et al., 2006]; [Fay et al., 2015]). […] In previous studies with common carp, an in vitro digestion method was used to isolate hepatocytes ([Cowan-Ellsberry et al., 2008]; [Dyer et al., 2008]). Here, we adopted the method of [Segner et al. (1993)] who used a two-step collagenase perfusion of carp liver via the Arteria coeliaca for cell isolation. With the perfusion method, the percentage of pancreatic cells in the final cell suspension is typically <5% ([Vogt and Segner, 1997]). Cryopreservation and thawing procedures applied for hepatocytes of both species were based on the standard protocols for rainbow trout ([Fay et al., 2014a]; [Fay et al., 2014b]). The viability of the cells was determined by means of the trypan blue exclusion assay and counting of stained and non-stained cells in a hemocytometer. The carp and trout primary hepatocyte suspensions used in the present study were aliquots of the in vitro preparations used in a previous study investigating the in vitro metabolite patterns of MXC ([Bischof et al., 2016]). A detailed description of the methods and materials used for the preparation of hepatocyte suspensions including the procedures for cell isolation, cryopreservation, and thawing, as well as cell counting, diluting to the target cell concentration, and heat-inactivating can therefore be taken from [Bischof et al. (2016)] and from the cited publications.
The in vitro hepatocyte clearance experiments were performed in a substrate depletion approach according to the methods previously published by [Fay et al. (2014b)]. These methods are in accordance with the procedures provided in the OECD TG 319A on the performance of in vitro hepatocyte clearance assays. In the present study, several in vitro runs with MXC and BaP using suspensions of either freshly isolated or cryopreserved hepatocytes from common carp and rainbow trout were carried out. For the different in vitro runs non-pooled hepatocytes were used, i.e. hepatocytes from different individual fish. For each run, triplicates of live cells (3 × 1 ml at nominal 2 × 10^6 cells/mL) and heat-inactivated cells as controls were dosed with the test chemical dissolved in acetonitrile (ACN) at the targeted concentration (2 µM for MXC and 0.5 µM for BaP) and incubated for 4 h at 15 °C (trout) or 20 °C (carp). MXC and BaP reactions were run side by side in the same in vitro run using the same hepatocyte suspensions. […]
Measured values of parent chemical concentration were log10-transformed and plotted against time. […]

[1] = cryopreserved trout hepatocytes
[2] = freshly isolated trout hepatocytes

Structure (SMILES) | Mean in vitro intrinsic clearance (CLin vitro, int) [1] [mL/h/10^6 cells] | Mean in vitro intrinsic clearance (CLin vitro, int) [2] [mL/h/10^6 cells]
c1ccc2c(c1)cc1ccc3cccc4ccc2c1c34 [BaP, benzo[a]pyrene] | 0.243 | 0.251
COc1ccc(C(c2ccc(OC)cc2)C(Cl)(Cl)Cl)cc1 [MXC, methoxychlor] | 0.283 | 0.250

Reference: paper PMC9538944, “In vitro biotransformation assays using fish liver cells: Comparing rainbow trout and carp hepatocytes” (Frontiers in Toxicology, 2022)
